Here are results for seven compounds from patent US5739114A, “Immunosuppressive cyclolignan derivatives” (Universidad de Salamanca, priority 1994, dated 1998).

A short description of series [1]: Cytotoxicity for monkey kidney fibroblasts. The series is classed as cell-based. The source says:
^d IC50 (μg/ml) for monkey kidney fibroblasts.

Series [2] has as its system Graft-vs.-Host Reaction (spleen weight). Put plainly: in vivo Graft-vs.-Host Reaction (GVHR) test. From the text:
^b % reduction of spleen weight with respect to non treated animals.

For a further series, the system named is graft (implant duration). Put plainly: in vivo Suppression Graft (SG) test. The source says:
^c % of implant duration with respect to non treated animals.
^e 20% of the animals died in this experiment before the end of the
program (30 days of observation).

≈ marks a conversion by molar mass, not a printed value. Where two headings read alike, the source gives them in different places.

Take `COc1cc([C@@H]2c3cc(O)c(O)cc3C[C@H]3COC(=O)[C@H]32)cc(OC)c1OC` [AP-37, 3,4-O-demethylenedeoxypicropodophyllin]: the CC50 in series [1] (read-out: Cytotox. IC50) was over 20 µg/mL. Besides, the “GVHR index: % reduction of spleen weight with respect to non treated animals” value (“GVHR index: % reduction … to non treated animals” below) in series [2] (dose 0.1 mg/kg/day (7 days)) is 58%. Regarding `COc1cc([C@@H]2c3cc(O)c(O)cc3[C@@H](O)[C@H]3COC(=O)[C@H]23)cc(OC)c1OC` [AP-39, 3,4-O-demethyleneepipodophyllotoxin], in the series with graft (implant duration) (dose 1.5 mg/kg/day (7 days)), the “SG index: % of implant duration with respect to non treated animals” value (shortened to “SG index: % … to non treated animals”) is reported as 200%. In addition, the CC50 in series [1] (read-out: Cytotox. IC50) is over 10 µg/mL.

In the case of `COc1cc([C@@H]2c3cc(O)c(O)cc3[C@H](O)[C@H]3COC(=O)[C@H]23)cc(OC)c1OC` [AP-40, 3,4-O-demethylenepodophyllotoxin], the “SG index: % … to non treated animals” value in the series on graft (implant duration) (dose 1.5 mg/kg/day (7 days)) is given as 229%. For the same compound, the CC50 in series [1] (read-out: Cytotox. IC50) worked out at 0.5 µg/mL (≈ 1.24 µM). As for `COC(=O)C1Oc2cc3c(cc2O1)[C@@H](c1cc(OC)c(OC)c(OC)c1)[C@@H]1C(=O)OC[C@@H]1C3` (stereo partly shown) [AP-47, 10-methoxycarbonyldeoxypicropodophyllin], the CC50 in series [1] (read-out: Cytotox. IC50) was 2.5 µg/mL (≈ 5.48 µM). In addition, the “GVHR index: % reduction … to non treated animals” value in series [2] (dose 10 mg/kg/day (7 days)) is reported as 56%.

For `O=P1(N(CCCl)CCCl)NCCCO1` (stereo not shown) [Cyclophosphamide, reference compound], in series [2] (dose 200 mg/kg/day (7 days)), the “GVHR index: % reduction … to non treated animals” value amounted to 79%.

`COC(=O)C1C2CN(c3ccccc3)N=C2c2cc3c(cc2C1c1cc(OC)c(OC)c(OC)c1)OCO3` (stereo not shown) [LL-4, methyl phenylpyrazopodophyllate]: the CC50 in series [1] (read-out: Cytotox. IC50) came to 1 µg/mL (≈ 1.94 µM). Further, the “GVHR index: % reduction … to non treated animals” value in series [2] (dose 1 mg/kg/day (7 days)) is 53%. Regarding `COc1cc(C2c3cc4c(cc3C3=NOCC3C2C(=O)O)OCO4)cc(OC)c1OC` (stereo not shown) [LL-11, isoxazopodophyllic acid], in the series with graft (implant duration) (dose 0.15 mg/kg/day (7 days)), the “SG index: % … to non treated animals” value is recorded as 204%. In series [1], the CC50 was over 10 µg/mL.
